According to patent US20250296953A1, “3,4-THIAZOLO-STEROIDS AND METHODS OF MAKING AND USING THE SAME” (Arkansas State University - Jonesboro, priority 2018, published 2025):
Like-named read-outs stand apart in the source and are kept apart here.

What was measured:
MALME-3M = test: Melanoma cytotoxicity assay (resazurin); assay type: cell-based; details: human, 24 h
Method in brief: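 MALME-3M cells (~4000/well) seeded 24 h, then exposed to compound in triplicate for 24 h at 37° C, 5% CO2. Resazurin added for 6 h, fluorescence read at 544/590 nm; background-subtracted viability normalised to DMSO wells. IC50 from sigmoidal fit of serial dilutions.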

[1] = system: 60 different human tumor cell lines; details: five dose
SK-MEL-5 = test: Melanoma cytotoxicity assay (resazurin); assay type: cell-based; details: human, 24 h
Method in brief: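 Growth inhibition was scored by resazurin reduction over 6 h, read by fluorescence, after cells had been treated with serially diluted compounds for 24 h. Background from medium-only wells was subtracted and signal expressed relative to DMSO controls.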

LOX IMVI = test: Melanoma cytotoxicity assay (resazurin); assay type: cell-based; details: human, 24 h
Method in brief: (§1)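 Cells are plated at roughly 4000 per well and allowed 24 h before compound addition in triplicate. After a further 24 h, resazurin is added for 6 h and fluorescence measured; percent viability is normalized to DMSO-treated wells.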

SK-MEL-28 = test: Melanoma cytotoxicity assay (resazurin); assay type: cell-based; details: human, 24 h
Method in brief: as §1

SK-MEL-25 = test: Melanoma cytotoxicity assay (resazurin); assay type: cell-based
Method in brief: as §1

glioblastoma (SF-295) = test: NCI 60 five dose screen

## C[C@]12CC[C@H]3[C@@H](CC=C4c5sc(Nc6ccccc6)nc5CC[C@@]43C)[C@@H]1CC[C@@H]2O [IIIa.10, (1S,2R,13R,14S,17S,18S)-7-anilino-2,18-dimethyl-8-thia-6-azapentacyclo[11.7.0.02,10.05,9.014,18]icosa-5(9),6,10-trien-17-ol]
MALME-3M
  MALME-3M (% viability): 68.28%
[1]; 786-0 (Renal Cancer)
  TGI: 3.30E−6
[1]; A498 (Renal Cancer)
  TGI: 5.66E−6
[1]; A549/ATCC (Non-small Cell Lung Cancer)
  TGI: 6.02E−6
[1]; ACHN (Renal Cancer)
  TGI: 3.25E−6
[1]; BT-549 (Breast Cancer)
  TGI: 4.31E−6
[1]; CAKI-1 (Renal Cancer)
  TGI: 5.68E−6
[1]; CCRF-CEM (Leukemia)
  TGI: 2.71E−5
[1]; COLO 205 (Colon Cancer)
  TGI: 5.61E−6
[1]; DU-145 (Prostate Cancer)
  TGI: 3.62E−6
[1]; EKVX (Non-small Cell Lung Cancer)
  TGI: 9.26E−6
[1]; HCC-2998 (Colon Cancer)
  TGI: 3.56E−6
[1]; HCT-15 (Colon Cancer)
  TGI: 5.15E−6
[1]; HCT-116 (Colon Cancer)
  TGI: 3.01E−6
[1]; HL-60(TB) (Leukemia)
  TGI: 6.87E−6
[1]; HOP-62 (Non-small Cell Lung Cancer)
  TGI: 6.54E−6
[1]; HOP-92 (Non-small Cell Lung Cancer)
  TGI: 6.77E−6
[1]; HS 578T (Breast Cancer)
  TGI: 1.72E−5
[1]; HT29 (Colon Cancer)
  TGI: 4.45E−6
[1]; IGROV1 (Ovarian Cancer)
  TGI: 7.85E−6
[1]; K-562 (Leukemia)
  TGI: 1.26E−5
[1]; KM12 (Colon Cancer)
  TGI: 3.12E−6
[1]; LOX IMVI (Melanoma)
  TGI: 2.77E−6
[1]; M14 (Melanoma)
  TGI: 4.27E−6
[1]; MALME-3M (Melanoma)
  TGI: 5.89E−6
[1]; MCF7 (Breast Cancer)
  TGI: 4.73E−6
[1]; MDA-MB-231/ATCC (Breast Cancer)
  TGI: 4.63E−6
[1]; MDA-MB-435 (Melanoma)
  TGI: 7.03E−6
[1]; MDA-MB-468 (Breast Cancer)
  TGI: 3.38E−6
[1]; MOLT-4 (Leukemia)
  TGI: 8.07E−6
[1]; NCI-H23 (Non-small Cell Lung Cancer)
  TGI: 5.04E−6
[1]; NCI-H226 (Non-small Cell Lung Cancer)
  TGI: 5.57E−6
[1]; NCI-H322M (Non-small Cell Lung Cancer)
  TGI: 1.11E−5
[1]; NCI-H460 (Non-small Cell Lung Cancer)
  TGI: 4.04E−6
[1]; NCI-H522 (Non-small Cell Lung Cancer)
  TGI: 4.50E−6
[1]; NCI/ADR-RES (Ovarian Cancer)
  TGI: 9.17E−5
[1]; OVCAR-3 (Ovarian Cancer)
  TGI: 2.62E−6
[1]; OVCAR-4 (Ovarian Cancer)
  TGI: 1.54E−5
[1]; OVCAR-5 (Ovarian Cancer)
  TGI: 7.86E−6
[1]; OVCAR-8 (Ovarian Cancer)
  TGI: 1.49E−5
[1]; PC-3 (Prostate Cancer)
  TGI: 5.84E−6
[1]; RXF 393 (Renal Cancer)
  TGI: 2.28E−6
[1]; SF-268 (CNS Cancer)
  TGI: 3.32E−6
[1]; SK-MEL-2 (Melanoma)
  TGI: 5.64E−6
[1]; SK-MEL-5 (Melanoma)
  TGI: 3.41E−6
[1]; SK-MEL-28 (Melanoma)
  TGI: 3.99E−6
[1]; SK-OV-3 (Ovarian Cancer)
  TGI: 1.79E−5
[1]; SN12C (Renal Cancer)
  TGI: 3.28E−6
[1]; SNB-19 (CNS Cancer)
  TGI: 3.77E−6
[1]; SNB-75 (CNS Cancer)
  TGI: 3.05E−6
[1]; SW-620 (Colon Cancer)
  TGI: 5.36E−6
[1]; TK-10 (Renal Cancer)
  TGI: 6.63E−6
[1]; U251 (CNS Cancer)
  TGI: 2.79E−6
[1]; UACC-62 (Melanoma)
  TGI: 3.96E−6
[1]; UACC-257 (Melanoma)
  TGI: 6.68E−6
[1]; UO-31 (Renal Cancer)
  TGI: 3.05E−6
SK-MEL-5
  SK-MEL-5 (% viability): 14.72%
LOX IMVI
  LOX-IMVI (% viability): 27%
SK-MEL-28
  SK-MEL-28 (% viability): 13.79%
SK-MEL-25; Homo sapiens, SK-MEL-25 melanoma cells (head prints SK-25), read-out: SK-25 IC50
  IC50: > 20 µM
SK-MEL-25; human, 24 h
  SK-MEL-25 (% viability): 13.15%
Glioblastoma (SF-295); Homo sapiens, SF-295
  GI50: 1.06 µM
Glioblastoma (SF-295); Homo sapiens, SF-295, read-out: LC50
  CC50: 8.38 µM
Glioblastoma (SF-295); SF-295 (CNS Cancer), five dose
  TGI: 2.98E−6
